Blank lines part the entries; values can stand above or below the molecule they belong to. Active and inactive are the calls of the source. The rule behind the calls is not given here.
Assays:
[1] = molecular target: T1, Proteasomal ubiquitin receptor ADRM1/Bromodomain-containing protein 4 (Homo sapiens, UniProt O60885+Q16186); assay: BYETAC activity at 26S proteasome subunit Rpn13/BRD4 in human Ramos cells assessed as induction of BRD4 degradation at 500 nM preincubated with JQ1 for 1 hrs followed by compound addition and measured after 18 hrs by competitive Western blot analysis; assay type: cell-based
[2] = molecular target: Proteasomal ubiquitin receptor ADRM1/Bromodomain-containing protein 3 (Homo sapiens) (UniProt Q15059+Q16186); assay: BYETAC activity at 26S proteasome subunit Rpn13/BRD3 in human Ramos cells assessed as induction of BRD3 degradation at 100 nM incubated for 18 hrs by Western blot analysis; assay type: cell-based
[3] = molecular target: T1, Proteasomal ubiquitin receptor ADRM1/Bromodomain-containing protein 4; assay: BYETAC activity at 26S proteasome subunit Rpn13/BRD4 in human Ramos cells assessed as induction of BRD4 degradation by measuring remaining activity at 100 nM incubated for 18 hrs in presence of TAK-243 by Western blot analysis relative to control; assay type: cell-based
[4] = molecular target: T1, Proteasomal ubiquitin receptor ADRM1/Bromodomain-containing protein 4; assay: Binding affinity to 26S proteasome subunit Rpn13/BRD4 in human Ramos cells assessed as ternary complex formation at 5 uM incubated for 3 hrs by co-immunoprecipitation analysis; assay type: cell-based
[5] = molecular target: T1, Proteasomal ubiquitin receptor ADRM1/Bromodomain-containing protein 4; assay: BYETAC activity at 26S proteasome subunit Rpn13/BRD4 in human Ramos cells assessed as induction of BRD4 degradation incubated for 18 hrs by Western blot analysis; assay type: cell-based
[6] = molecular target: T1, Proteasomal ubiquitin receptor ADRM1/Bromodomain-containing protein 4; assay: BYETAC activity at 26S proteasome subunit Rpn13/BRD4 in human U87 cells assessed as induction of BRD4 degradation by measuring remaining activity at 100 nM incubated for 18 hrs by Western blot analysis (reference value: 100 %); assay type: cell-based
[7] = molecular target: T1, Proteasomal ubiquitin receptor ADRM1/Bromodomain-containing protein 4; assay: BYETAC activity at 26S proteasome subunit Rpn13/BRD4 in human U87 cells assessed as induction of BRD4 degradation by measuring remaining activity at 500 nM incubated for 18 hrs by Western blot analysis (reference value: 100 %); assay type: cell-based
[8] = molecular target: Proteasomal ubiquitin receptor ADRM1 (Homo sapiens) (UniProt Q16186); assay: Induction of Rpn-13 stabilization in human Ramos cells assessed as increase in Rpn-13 level at 5 uM incubated for 3 hrs by co-immunoprecipitation analysis; assay type: cell-based
[9] = molecular target: T1, Proteasomal ubiquitin receptor ADRM1/Bromodomain-containing protein 4; assay: BYETAC activity at 26S proteasome subunit Rpn13/BRD4 in human Ramos cells assessed as induction of BRD4 degradation at 500 nM preincubated with TCL1 for 1 hrs followed by compound addition and measured after 18 hrs by competitive Western blot analysis; assay type: cell-based
[10] = molecular target: T1, Proteasomal ubiquitin receptor ADRM1/Bromodomain-containing protein 4; assay: BYETAC activity at 26S proteasome subunit Rpn13/BRD4 in human Ramos cells assessed as induction of BRD4 degradation by measuring remaining activity at 100 nM incubated for 18 hrs by Western blot analysis (reference value: 100 %); assay type: cell-based
Ramos = assay: Antiproliferative activity against human Ramos cells assessed as reduction in cell viability incubated for 48 hrs; assay type: functional, cell-based
[11] = molecular target: T1, Proteasomal ubiquitin receptor ADRM1/Bromodomain-containing protein 4; assay: BYETAC activity at 26S proteasome subunit Rpn13/BRD4 in human Ramos cells assessed as induction of BRD4 degradation by measuring remaining activity at 500 nM incubated for 18 hrs by Western blot analysis (reference value: 100 %); assay type: cell-based
[12] = molecular target: T1, Proteasomal ubiquitin receptor ADRM1/Bromodomain-containing protein 4; assay: BYETAC activity at 26S proteasome subunit Rpn13/BRD4 in human Raji cells assessed as induction of BRD4 degradation by measuring remaining activity at 10 nM incubated for 18 hrs by Western blot analysis (reference value: 100 %); assay type: cell-based
[13] = molecular target: T1, Proteasomal ubiquitin receptor ADRM1/Bromodomain-containing protein 4; assay: BYETAC activity at 26S proteasome subunit Rpn13/BRD4 in human Ramos cells assessed as induction of BRD4 degradation by measuring remaining activity at 10 nM incubated for 18 hrs by Western blot analysis (reference value: 100 %); assay type: cell-based
[14] = molecular target: T1, Proteasomal ubiquitin receptor ADRM1/Bromodomain-containing protein 4; assay: Induction of BRD4 degradation in human U87 cells transfected with Rpn-13 siRNA at 100 nM incubated for 18 hrs by Western blot analysis; assay type: cell-based
[15] = molecular target: Proteasomal ubiquitin receptor ADRM1/Bromodomain-containing protein 2 (Homo sapiens) (UniProt P25440+Q16186); assay: BYETAC activity at 26S proteasome subunit Rpn13/BRD2 in human Ramos cells assessed as induction of BRD2 degradation at 100 nM incubated for 18 hrs by Western blot analysis; assay type: cell-based
[16] = molecular target: T1, Proteasomal ubiquitin receptor ADRM1/Bromodomain-containing protein 4; assay: BYETAC activity at 26S proteasome subunit Rpn13/BRD4 in human Raji cells assessed as induction of BRD4 degradation by measuring remaining activity at 100 nM incubated for 18 hrs by Western blot analysis (reference value: 100 %); assay type: cell-based
[17] = molecular target: T1, Proteasomal ubiquitin receptor ADRM1/Bromodomain-containing protein 4; assay: BYETAC activity at 26S proteasome subunit Rpn13/BRD4 in human U87 cells assessed as induction of BRD4 degradation at 500 nM measured up to 72 hrs by Western blot analysis; assay type: cell-based
[18] = molecular target: T1, Proteasomal ubiquitin receptor ADRM1/Bromodomain-containing protein 4; assay: BYETAC activity at 26S proteasome subunit Rpn13/BRD4 in human Raji cells assessed as induction of BRD4 degradation by measuring remaining activity at 500 nM incubated for 18 hrs by Western blot analysis (reference value: 100 %); assay type: cell-based
[19] = molecular target: T1, Proteasomal ubiquitin receptor ADRM1/Bromodomain-containing protein 4; assay: BYETAC activity at 26S proteasome subunit Rpn13/BRD4 in human Ramos cells assessed as induction of BRD4 degradation at 100 nM incubated for 18 hrs in presence of MG132 by Western blot analysis; assay type: cell-based
[20] = molecular target: T1, Proteasomal ubiquitin receptor ADRM1/Bromodomain-containing protein 4; assay: BYETAC activity at 26S proteasome subunit Rpn13/BRD4 in human U87 cells assessed as induction of BRD4 degradation by measuring remaining activity at 10 nM incubated for 18 hrs by Western blot analysis (reference value: 100 %); assay type: cell-based
[21] = molecular target: Proteasomal ubiquitin receptor ADRM1/Glycogen synthase kinase-3 beta (Homo sapiens) (UniProt P49841+Q16186); assay: Halo-BYETAC activity at 26S proteasome subunit Rpn13/Halo-tagged GSK3beta (unknown origin) transfected in human U87 cells assessed as induction of Halo-tagged GSK3beta degradation at 1 to 10 uM incubated for 18 hrs by Western blot analysis; assay type: cell-based; details: dose 1-10 µM
[22] = molecular target: T1, Proteasomal ubiquitin receptor ADRM1/Bromodomain-containing protein 4; assay: Induction of BRD4 degradation in human Ramos cells at 10 to 1000 nM incubated for 18 hrs by Western blot analysis; assay type: cell-based; details: dose 10-1000 nM
[23] = molecular target: T2, Proteasomal ubiquitin receptor ADRM1/Tyrosine-protein kinase BTK (Homo sapiens) (UniProt Q06187+Q16186); assay: BYETAC activity at 26S proteasome subunit Rpn13/BTK in human Ramos cells assessed as induction of BTK degradation by measuring remaining activity at 10 uM incubated for 18 hrs by Western blot analysis (reference value: 100 %); assay type: cell-based
[24] = molecular target: T2, Proteasomal ubiquitin receptor ADRM1/Tyrosine-protein kinase BTK (Homo sapiens); assay: BYETAC activity at 26S proteasome subunit Rpn13/BTK in human Ramos cells assessed as induction of BTK degradation by measuring remaining activity at 25 uM incubated for 18 hrs by Western blot analysis (reference value: 100 %); assay type: cell-based
[25] = molecular target: T2, Proteasomal ubiquitin receptor ADRM1/Tyrosine-protein kinase BTK (Homo sapiens); assay: BYETAC activity at 26S proteasome subunit Rpn13/BTK in human Ramos cells assessed as induction of BTK degradation by measuring remaining activity at 1 uM incubated for 18 hrs by Western blot analysis (reference value: 100 %); assay type: cell-based
[26] = molecular target: T2, Proteasomal ubiquitin receptor ADRM1/Tyrosine-protein kinase BTK (Homo sapiens); assay: BYETAC activity at 26S proteasome subunit Rpn13/BTK in human Ramos cells assessed as induction of BTK degradation by measuring remaining activity at 0.5 uM incubated for 18 hrs by Western blot analysis (reference value: 100 %); assay type: cell-based
[27] = molecular target: T2, Proteasomal ubiquitin receptor ADRM1/Tyrosine-protein kinase BTK (Homo sapiens); assay: BYETAC activity at 26S proteasome subunit Rpn13/BTK in human Ramos cells assessed as induction of BTK degradation at 1 to 25 uM incubated for 18 hrs by Western blot analysis; assay type: cell-based; details: dose 1-25 µM

Activity [1]: inactive | Activity [2]: Active | Activity [3]: 40% | Activity [4]: Active | DC50 [5]: ~500 nM | Activity [6]: 36% | Activity [7]: 20% | Activity [8]: Active | Activity [9]: inactive | Activity [10]: 55% | IC50 (Ramos): 30.5 nM | Activity [11]: 33% | Activity [12]: 95% | Activity [13]: 91% | Activity [14]: inactive | Activity [15]: Active | Activity [16]: 72% | Activity [17]: Active | Activity [18]: 62% | Activity [19]: inactive | Activity [20]: 66%
Compound: Cc1sc2c(c1C)C(c1ccc(Cl)cc1)=N[C@@H](CC(=O)NCCOCCOCCOCCOCCNC(=O)CC1Sc3nnc(Cc4ccc(Br)cc4)n3N=C1c1ccc(Cl)cc1)c1nnc(C)n1-2 (stereo not given in full)

Activity [10]: 100% | Activity [11]: 80% | Activity [13]: 107%
Compound: Cc1sc2c(c1C)C(c1ccc(Cl)cc1)=N[C@@H](CC(=O)NCCOCCOCCOCCOCCOCCOCCOCCNC(=O)CC1Sc3nnc(Cc4ccc(Br)cc4)n3N=C1c1ccc(Cl)cc1)c1nnc(C)n1-2 (stereo not given in full)

Activity [10]: 87% | Activity [11]: 60% | Activity [13]: 92%
Compound: Cc1sc2c(c1C)C(c1ccc(Cl)cc1)=N[C@@H](CC(=O)NCCOCCOCCOCCOCCOCCNC(=O)CC1Sc3nnc(Cc4ccc(Br)cc4)n3N=C1c1ccc(Cl)cc1)c1nnc(C)n1-2 (stereo not given in full)

Activity [21]: Active
Compound: ClCCCCCCNCCOCCOCCNCC1Sc2nnc(Cc3ccc(Br)cc3)n2N=C1c1ccc(Cl)cc1 (stereo not given)

DC50 [5]: ~500 nM | Activity [6]: 53% | Activity [7]: 36% | Activity [10]: 69% | Activity [11]: 35% | Activity [12]: 78% | Activity [13]: 111% | Activity [16]: 77% | Activity [18]: 68% | Activity [20]: 83%
Compound: Cc1sc2c(c1C)C(c1ccc(Cl)cc1)=N[C@@H](CC(=O)NCCOCCOCCOCCNC(=O)CC1Sc3nnc(Cc4ccc(Br)cc4)n3N=C1c1ccc(Cl)cc1)c1nnc(C)n1-2 (stereo not given in full)

Activity [22]: inactive
Compound: O=C(O)CC1Sc2nnc(Cc3ccc(Br)cc3)n2N=C1c1ccc(Cl)cc1 (stereo not given)

Activity [23]: 3% | Activity [24]: 6% | Activity [25]: 72% | Activity [26]: 97%
Compound: Nc1ncnc2c1c(-c1ccc(Oc3ccccc3)cc1)nn2[C@H]1CCCN(C(=O)CCC(=O)NCCOCCOCCOCCOCCOCCOCCOCCOCCNC(=O)CC2Sc3nnc(Cc4ccc(Br)cc4)n3N=C2c2ccc(Cl)cc2)C1 (stereo not given in full)

Activity [27]: inactive
Compound: Nc1ncnc2c1c(-c1ccc(Oc3ccccc3)cc1)nn2[C@H]1CCCN(C(=O)COCCOCCOCCOCCNC(=O)CC2Sc3nnc(Cc4ccc(Br)cc4)n3N=C2c2ccc(Cl)cc2)C1 (stereo not given in full)

IC50 (Ramos): 1.9 nM
Compound: Cc1sc2c(c1C)C(c1ccc(Cl)cc1)=N[C@@H](CC(=O)Nc1ccc(OCCOCCOCCOCCNc3cccc4c3C(=O)N(C3CCC(=O)NC3=O)C4=O)cc1)c1nnc(C)n1-2 (stereo not given in full)

From ChEMBL document CHEMBL6134889, “ByeTAC: Bypassing E-Ligase-Targeting Chimeras for Direct Proteasome Degradation” (J Med Chem, 2025)
